The values below come from article PMC6733504, “Effects of flavoring compounds used in electronic cigarette refill liquids on endothelial and vascular function” (PLoS ONE, 2019).

In one series the target is T1, NO synthase (NOS) (Sus scrofa, UniProt Q28969).
T1 construct: endogenous in cells; host or cells: primary porcine aortic endothelial cells (up to 3 passages)
T1 sequence (Q28969 1-1205): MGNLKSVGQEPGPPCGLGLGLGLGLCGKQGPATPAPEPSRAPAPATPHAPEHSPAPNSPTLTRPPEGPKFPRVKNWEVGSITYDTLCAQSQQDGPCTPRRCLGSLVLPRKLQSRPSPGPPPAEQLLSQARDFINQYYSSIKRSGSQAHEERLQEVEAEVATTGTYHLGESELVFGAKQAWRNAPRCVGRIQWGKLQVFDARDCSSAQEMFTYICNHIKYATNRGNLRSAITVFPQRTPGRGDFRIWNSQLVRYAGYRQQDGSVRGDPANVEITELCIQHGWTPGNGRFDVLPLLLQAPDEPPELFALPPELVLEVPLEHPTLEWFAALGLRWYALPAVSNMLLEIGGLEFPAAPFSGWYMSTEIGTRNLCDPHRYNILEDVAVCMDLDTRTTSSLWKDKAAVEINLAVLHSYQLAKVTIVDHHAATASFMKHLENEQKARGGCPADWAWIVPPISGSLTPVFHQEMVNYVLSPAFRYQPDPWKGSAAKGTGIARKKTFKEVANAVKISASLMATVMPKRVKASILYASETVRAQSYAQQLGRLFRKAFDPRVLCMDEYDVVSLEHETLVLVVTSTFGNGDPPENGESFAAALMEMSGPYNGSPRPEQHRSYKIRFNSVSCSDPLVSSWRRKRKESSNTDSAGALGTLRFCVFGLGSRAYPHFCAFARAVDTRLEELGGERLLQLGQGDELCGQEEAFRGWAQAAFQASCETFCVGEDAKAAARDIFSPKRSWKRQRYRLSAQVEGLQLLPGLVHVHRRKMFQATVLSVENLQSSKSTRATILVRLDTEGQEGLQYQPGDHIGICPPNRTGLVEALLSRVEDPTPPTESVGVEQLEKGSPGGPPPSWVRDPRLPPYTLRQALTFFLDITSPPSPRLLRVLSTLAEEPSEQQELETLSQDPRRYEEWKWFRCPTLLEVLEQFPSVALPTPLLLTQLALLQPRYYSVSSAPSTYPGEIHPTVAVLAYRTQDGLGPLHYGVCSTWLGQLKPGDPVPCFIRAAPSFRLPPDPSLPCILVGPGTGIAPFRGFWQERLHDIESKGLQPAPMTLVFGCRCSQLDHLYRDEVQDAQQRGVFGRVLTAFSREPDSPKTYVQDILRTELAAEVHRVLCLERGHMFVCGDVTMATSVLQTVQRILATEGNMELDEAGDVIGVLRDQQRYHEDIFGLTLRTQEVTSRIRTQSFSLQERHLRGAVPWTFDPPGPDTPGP
Kind of series: Endothelial L-citrulline formation (NOS activity in intact cells). Format: cell-based, porcine. To be noted: for Direct effect on NOS-catalyzed L-citrulline formation: 1 mM, absence of A23187 (S1 Fig). How it is done:
NO synthase (NOS) activity in intact cells was determined by monitoring the conversion of L-[^3H]arginine into L-[^3H]citrulline as previously described. […] Subsequent to lysis of the cells with 0.01 M HCl, an aliquot was removed for determination of incorporated radioactivity. To the remaining sample, 200 mM sodium acetate buffer ([…]) containing 10 mM L-citrulline was added (final pH ~5.0), and L-[^3H]citrulline was separated from L-[^3H]arginine by cation exchange chromatography.

The subject of a further series is endothelial cells. Kind of series: MTT to formazan conversion (viability). Format: cell-based, porcine. The following applies: 1 mM, 60 minutes. As for the experimental part: The viability of endothelial cells was judged by incubation with 1 mM of the flavoring compounds, followed by determination of 3-(4,5-dimethyl-2-thiazolyl)-2,5-diphenyltetrazolium bromide (MTT) to formazan conversion using the Cayman MTT Cell Proliferation Assay Kit purchased through VWR International (Vienna, Austria).

The next series relates to rat aortic rings. Nature of the series: Effect of flavorings on vascular tone of U-46619 precontracted aortic rings. To be noted: 95% CI. As for the experimental part:
Unsexed Sprague-Dawley rats (obtained from Charles River, Sulzfeld, Germany) were housed at the local animal facility in approved cages. […] Animals were euthanized in a box that was gradually filled with CO2 until vital signs had ceased (cessation of respiration and circulation). Subsequently, the thorax of the animals was opened, the thoracic aorta was removed, cleaned from connective tissue and immediately used for assessment of vessel function.
After equilibration for 60 min at the optimal resting tension of 20 mN, maximal contractile activity was determined with a depolarizing solution containing 60 mM K^+. […] When contraction had reached a stable plateau (~after 20 min) cumulative concentration-response curves were established with flavorings. Where indicated, the effects of the flavorings on vascular tone were tested in the presence of the NOS inhibitor N^G-nitro-L-arginine methyl ester (L-NAME, 0.2 mM).
Concentration-response curves of different ring segments from a single animal were averaged and counted as an individual experiment.

Series [1] deals with endothelium-denuded rat aortic rings. Nature of the series: cAMP and cGMP levels in endothelium-denuded aortic rings. The text has this: 1 S4 Table. […]
2 endothelium-denuded rat aortic rings.
Flavoring (fmol x mg-1) (fmol x mg-1)
4 En d o th e liu m-denuded rings, treated with test compounds as described in the
5 Materials and methods section of the main text, were freeze-clamped when maximal
6 relaxation had been reached. Rings were homogenized in 5% trichloroacetic acid
7 and analyzed for cAMP and cGMP by radioimmunoassay. Forskolin and DEA/NO
8 were used to induce maximal accumulation of cAMP and cGMP, respectively. Data
9 shown are mean values±SEM of 3 (forskolin and DEA/NO) or 6 (basal,
10 cinnamaldehyde and eugenol) rings; n.d., not determined, *p<0.05 vs. basal (ANOVA
11 and Dunnett's post hoc test).

The test system is the same in series [2]. Kind of series: CaCl2-induced contractile response in endothelium-denuded aortic rings. To be noted: Ca2+-free high K+ solution, CaCl2 0.156-2.5 mM. How it is done:
Rings were treated with Ca2+-
4 free high K+ solution (containing 0.1 mM EG TA a n d 6 0 mM K+). The Ca2+-free
5 preparations were then cumulatively contracted with CaCl2 (0.156-2.5 mM) in the
6 absence or presence of cinnamaldehyde or eugenol. The established L-type Ca2+
9 Concentration-response curves obtained with different ring segments from a single
10 animal were averaged and counted as an individual experiment. Data are expressed
11 as mean values ±SEM ( n=3).
(1 picture or pasted object on this page, not shown here)

Where [3] appears, read: Rattus norvegicus, absence of L-NAME, read-out: EC50 of relaxation of pre-contracted vessels (Control).
Setting [4] is: Rattus norvegicus, presence of L-NAME 0.2 mM, read-out: EC50 of relaxation of pre-contracted vessels (L-NAME).

Like-named read-outs stand apart in the source and are kept apart here.

With `C=CCc1ccc(O)c(OC)c1` [Eugenol, 2-Methoxy-4-(prop-2-en-1-yl)phenol], the “Direct effect on NOS-catalyzed L-citrulline formation” value at NO synthase (NOS) is reported as “neither eugenol nor cinnamaldehyde increased”. Also, the “Formazan formation (% of control)” value with endothelial cells is listed as 107±4.6 % of control. The EC50 (commonly the midpoint of the concentration-response curve) in the series on rat aortic rings (setting [3]) was roughly 500 µM; in the series on rat aortic rings (setting [4]), 500 µM; in the series with rat aortic rings (absence of L-NAME, read-out: EC50 of relaxation of pre-contracted vessels (Control)), 400 µM. Moreover, the cAMP in series [1] (1 mM) was found to be 162±9 fmol x mg-1; in series [1] (10 mM), 171±24 fmol x mg-1. The cGMP in series [1] (1 mM) is on record as 81±4 fmol x mg-1; in series [1] (10 mM), 71±18 fmol x mg-1. Besides, the “Effect on CaCl2-induced contraction” value in series [2] is recorded as “significantly inhibited”.

In the case of `O=C/C=C/c1ccccc1` [Cinnamaldehyde, (2E)-3-Phenylprop-2-enal], on NO synthase (NOS), the “Concentration inhibiting Ca2+-stimulated NO synthase activation” value was no less than 0.3 mM and the “Direct effect on NOS-catalyzed L-citrulline formation” value was “neither eugenol nor cinnamaldehyde increased”. Further, at NO synthase (NOS) (0.3 and 1.0 mM (Fig 2A)), the “Effect on A23187-stimulated L-citrulline formation (endothelial NOS activity)” value is “significantly inhibited”. Also, the “Formazan formation (% of control)” value in the series with endothelial cells was 91±2.6 % of control. Besides, the concentration for a half-maximal effect (EC50) in the series with rat aortic rings (setting [3]) is roughly 500 µM. Also, the EC50 with rat aortic rings (setting [4]) was found to be 600 µM. In series [1] (1 mM), this compound had a cAMP of 200±36 fmol x mg-1 and a cGMP of 127±10 fmol x mg-1. In addition, in series [1] (10 mM), the cAMP is 161±7 fmol x mg-1 and the cGMP is on record as 86±7 fmol x mg-1. Also, in series [2], the “Effect on CaCl2-induced contraction” value is on record as “significantly inhibited”.
